According to US20160102074A1, “SUBSTITUTED AMIDE COMPOUNDS” (PFIZER INC., priority 2014, published 2016):
pIC50: −log10 of the molar value.

Test system: human PCSK9
Test: Cell Free PCSK9 Assay (PCSK9-luciferase mRNA translation in HeLa lysate)
Format: biochemical
Conditions: PCSK9-luciferase RNA, 30° C. for 45 minutes, top concentration 100 μM
Method: As defined herein inhibition of translation of PCSK9 mRNA to PCSK9 protein is determined by the “Cell Free PCSK9 Assay” provided herein in the specification. This “Cell Free PCSK9 Assay” is specific to the production of PCSK9 protein from PCSK9 mRNA and therefore detects inhibitors of this translational process rather than other mechanisms by which PCSK9 protein may be reduced.
In order to eliminate the permeability barrier inherent to the WT7 cell-based assays a cell-free system was also established to assess compound activitiy. A sequence containing the full length human PCSK9 (NCBI reference identifier, NM_174936.3, where coding sequence start annotated at position 363) along with 84 additional 3′ nucleotides, comprising a V5 tag and polylinker followed by an in frame modified firefly luciferase reporter (corresponding to nucleotide positions 283-1929 of pGL3, GenBank reference identifier JN542721.1) was cloned into the pT7CFE1 expression vector (ThermoScientific). The construct was then in-vitro transcribed using the MEGAscript T7 Kit (Life Technologies) and RNA subsequently purified incorporating the MEGAclear Kit (Life Technologies) according to manufacturer's protocols. HeLa cell lysates were prepared following the protocols described by Mikami (reference is Cell-Free Protein Synthesis Systems with Extracts from Cultured Human Cells, S. Mikami, T. Kobayashi and H. Imataka; from Methods in Molecular Biology, vol. 607, pages 43-52, Y. Endo et al. (eds.), Humana Press, 2010) with the following modifications. Cells were grown in a 20 L volume of CD293 medium (Gibco 11765-054) with Glutamax increased to 4 mM, penicillin at 100 U/mL and other additions as previously described by Mikami. Growth was in a 50 L wavebag at a rocker speed of 25 rpm and angle 6.1 with 5% CO2 and 0.2 LPM flow rate with cells harvested at a density of 2-2.5e6/mL. Lysates additionally contained 1 tablet of Roche cOmplete-EDTA protease inhibitors per 50 mL with tris(2-carboxyethyl)phosphine (Biovectra) substituted for dithiothreitol, and were clarified by an additional final centrifugation at 10,000 rpm in a Sorvall SS34 rotor at 4° C. for 10 minutes. Compound screening was performed in 384-well plates in an eleven point, 0.5 log dilution format at a top test compound concentration of 100 μM in a final volume of 0.5% DMSO. In additional to these test compound conditions each screening plate also included wells that contained 100 μM of compound example 16 (as depicted in WO2014170786; N-(3-chloropyridin-2-yl)-N-[(3R)-piperidin-3-yl]-4-(3H-[1,2,3]triazolo[4,5-b]pyridin-3-yl)benzamide) as a positive assay control defined as high percent effect, HPE, as well as wells containing media in 0.5% DMSO as a negative treatment control defined as zero percent effect, ZPE. Compounds were incubated at 30° C. for 45 minutes in a solution containing 0.1 μg of purified, in-vitro transcribed RNA together with the cell-free reaction mixture (consisting of 1.6 mM Mg and 112 mM K salts, 4.6 mM tris(2-carboxyethyl)phosphine (Biovectra), 5.0 μL HeLa lysate, 0.2 μL RNAsin (Promega) and 1.0 μL energy mix (containing 1.25 mM ATP (Sigma), 0.12 mM GTP (Sigma), 20 mM creatine phosphate (Santa Cruz), 60 μg/mL creatine phosphokinase (Sigma), 90 μg/mL tRNA (Sigma) and the 20 amino acids (Life Technologies) at final concentrations described by Mikami) and brought up in water to a final volume of 10 μL in water. Upon assay completion 1 μL from each reaction solution was removed and transferred to a second 384-well Optiplate (Perkin Elmer) containing 24 μL of SteadyGlo (Promega) and signal intensity was measured on the Envision (Perkin Elmer) using the enhanced luminescence protocol. To determine compound IC50 the data for HPE and ZPE control wells were first analyzed and the mean, standard deviation and Z prime calculated for each plate. The test compound data were converted into percent effect, using the ZPE and HPE controls as 0% and 100% activity, respectively, applying Equation 1 above. […]

SMILES | pIC50
CCOC(=O)O[C@@H](C)n1nnnc1-c1c(-c2ccc(C(=O)N(c3ncccc3Cl)[C@@H]3CCCNC3)cc2F)cnn1C [Example 7, ethyl (S)-1-{5-[4-(4-{(3-chloropyridin-2-yl)[(3R)-piperidin-3-yl]carbamoyl}-2-fluorophenyl)-1-methyl-1H-pyrazol-5-yl]-1H-tetrazol-1-yl}ethyl carbonate] | 4.87
CCOC(=O)O[C@@H](C)n1nnnc1-c1c(-c2ccc(C(=O)N(c3ncccc3C)[C@@H]3CCCNC3)cc2)cnn1C [Example 5a, ethyl (S)-1-{5-[1-methyl-4-(4-{(3-methylpyridin-2-yl)[(3R)-piperidin-3-yl]carbamoyl}phenyl)-1H-pyrazol-5-yl]-1H-tetrazol-1-yl}ethyl carbonate] | 5.09
CCOC(=O)O[C@H](C)n1nnnc1-c1c(-c2ccc(C(=O)N(c3ncccc3C)[C@@H]3CCCNC3)cc2)cnn1C [Example 5b, ethyl (R)-1-{5-[1-methyl-4-(4-{(3-methylpyridin-2-yl)[(3R)-piperidin-3-yl]carbamoyl}phenyl)-1H-pyrazol-5-yl]-1H-tetrazol-1-yl}ethyl carbonate] | 5.19
CCOC(=O)O[C@@H](C)n1nnnc1-c1c(-c2ccc(C(=O)N(c3ncccc3C)[C@@H]3CCCNC3)cc2F)cnn1C [Example 8, ethyl (S)-1-{5-[4-(4-{(3-methylpyridin-2-yl)[(3R)-piperidin-3-yl]carbamoyl}-2-fluorophenyl)-1-methyl-1H-pyrazol-5-yl]-1H-tetrazol-1-yl}ethyl carbonate] | 4.96
CCOC(=O)O[C@@H](C)n1nnnc1-c1c(-c2ccc(C(=O)N(c3ncccc3C)[C@@H]3CCCNC3)nc2)cnn1C [Example 9, ethyl (S)-1-{5-[1-methyl-4-(6-{(3-methylpyridin-2-yl)[(3R)-piperidin-3-yl]carbamoyl}pyridin-3-yl)-1H-pyrazol-5-yl]-1H-tetrazol-1-yl}ethyl carbonate] | 4.23
CCOC(=O)O[C@@H](C)n1nnnc1-c1c(-c2ccc(C(=O)N(c3ncccc3Cl)[C@@H]3CCCNC3)cc2)cnn1C [Example 6, ethyl (S)-1-{5-[1-methyl-4-(4-{(3-chloropyridin-2-yl)[(3R)-piperidin-3-yl]carbamoyl}phenyl)-1H-pyrazol-5-yl]-1H-tetrazol-1-yl}ethyl carbonate] | 4.99
CCOC(=O)O[C@@H](C)n1nnnc1-c1c(-c2ccc(C(=O)N(c3ncccc3Cl)[C@@H]3CCCNC3)nc2)cnn1C [Example 10, ethyl (S)-1-{5-[4-(6-{(3-chloropyridin-2-yl)[(3R)-piperidin-3-yl]carbamoyl}pyridin-3-yl)-1-methyl-1H-pyrazol-5-yl]-1H-tetrazol-1-yl}ethyl carbonate] | < 4.13
Cn1ncc(-c2ccc(C(=O)N(c3ncccc3Cl)[C@@H]3CCCNC3)cc2F)c1-c1nn[nH]n1 [Example 3, N-(3-chloropyridin-2-yl)-3-fluoro-4-[1-methyl-5-(2H-tetrazol-5-yl)-1H-pyrazol-4-yl]-N-[(3R)-piperidin-3-yl]benzamide] | 5.55
